Holding throughout (assay): relative viability (nuclei count vs DMSO), 5 days (fraction); higher = more cells survive
Compound in test [1]: C1COCCN1C2=NC(=NC3=C2OC4=C3C=CC=N4)C5=CC(=CC=C5)NC(=O)C6=CN=C(C=C6)N + NC(=O)Nc1cc(-c2cccc(F)c2)sc1C(=O)N[C@H]1CCCNC1 [AZD7762] (partner 0.2 µM)
In outline:
(§1)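 Relative viability divides the nuclei count in treated wells by that in vehicle wells. Lung cancer cell lines were seeded in 1536-well plates, dosed by pin tool the next day, and fixed and stained after 5 days in one step with final 0.05% Triton X-100, 1% formaldehyde and 1 ug/ml Hoechst. Dosing was a single drug or a fixed anchor-drug dose plus five library-drug doses (not always all listed) in √10 steps, and values are medians of duplicate plates imaged at 4×.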

Compound in test [2]: C1COCCN1C2=NC(=NC3=C2OC4=C3C=CC=N4)C5=CC(=CC=C5)NC(=O)C6=CN=C(C=C6)N + O=C(CCCCCCC(=O)Nc1ccccc1)NO [Vorinostat] (partner 1 µM)
In outline: as §1

Compound in test [3]: CN1CCC(CNc2ccc3ncc(-c4cccc(OC(F)(F)F)c4)n3n2)CC1 [SGI-1776] + Cc1nc(NC(=O)N2CCC[C@H]2C(N)=O)sc1-c1ccnc(C(C)(C)C(F)(F)F)c1 [Alpelisib] (partner 2 µM)
In outline: as §1

Compound in test [4]: CN1CCC(CNc2ccc3ncc(-c4cccc(OC(F)(F)F)c4)n3n2)CC1 [SGI-1776] + CC(C)C[C@H](NC(=O)[C@H](Cc1ccccc1)NC(=O)c1cnccn1)B(O)O [Bortezomib] (partner 0.002 µM)
In outline: as §1

NCI-H1793: the relative viability in test [1] (first compound 0.02 µM) turned out to be 0.723; in test [1] (first compound 0.06325 µM), 0.457; in test [1] (first compound 0.2 µM) it was 0.357; in test [1] (first compound 0.6325 µM) it was 0.298; in test [1] (first compound 2 µM), 0.279; in test [2] (first compound 0.02 µM) it was 0.61. Further, the relative viability in test [2] (first compound 0.06325 µM) is 0.846; in test [2] (first compound 0.2 µM), 0.571; in test [2] (first compound 0.6325 µM) it was 0.59; in test [2] (first compound 2 µM) it was 0.574; in test [3] (first compound 0.08 µM) it was 0.807; in test [3] (first compound 0.8 µM), 0.808. For the same cell line, the relative viability in test [3] (first compound 2.53 µM) was found to be 0.974; in test [3] (first compound 8 µM), 0.602.

Turning to NCI-H1944, the relative viability worked out at 0.568 in test [1] (first compound 0.02 µM); 0.436 in test [1] (first compound 0.06325 µM); 0.398 in test [1] (first compound 0.2 µM); 0.389 in test [1] (first compound 0.6325 µM); 0.381 in test [1] (first compound 2 µM); 0.533 in test [2] (first compound 0.02 µM). The relative viability is 0.65 in test [2] (first compound 0.06325 µM); 0.5 in test [2] (first compound 0.2 µM); 0.485 in test [2] (first compound 0.6325 µM); 0.477 in test [2] (first compound 2 µM); 0.877 in test [3] (first compound 0.08 µM); 0.752 in test [3] (first compound 0.8 µM). Further, the results for the relative viability in test [3] (first compound 2.53 µM) and in test [3] (first compound 8 µM) were 0.807 and 0.649, respectively.

As to NCI-H2009, the relative viability is 0.697 in test [2] (first compound 0.02 µM); 0.82 in test [2] (first compound 0.06325 µM); 0.73 in test [2] (first compound 0.2 µM); 0.7 in test [2] (first compound 0.6325 µM); 0.739 in test [2] (first compound 2 µM); 1.03 in test [4] (first compound 0.08 µM). Also, the relative viability in test [4] (first compound 0.8 µM) was found to be 1.02; in test [4] (first compound 2.53 µM) it was 0.991; in test [4] (first compound 8 µM), 0.733; in test [3] (first compound 0.08 µM), 1.21; in test [3] (first compound 0.8 µM), 1.17; in test [3] (first compound 2.53 µM), 1.25. Further, in test [3] (first compound 8 µM), the relative viability was found to be 1.09.

For the cell line NCI-H2023, the relative viability stood at 0.602 in test [2] (first compound 0.02 µM); 0.747 in test [2] (first compound 0.06325 µM); 0.506 in test [2] (first compound 0.2 µM); 0.623 in test [2] (first compound 0.6325 µM); 0.319 in test [2] (first compound 2 µM); 1.13 in test [4] (first compound 0.08 µM). Further, the relative viability in test [4] (first compound 0.8 µM) is 1.07; in test [4] (first compound 2.53 µM), 0.988; in test [4] (first compound 8 µM), 0.727; in test [3] (first compound 0.08 µM) it was 0.595; in test [3] (first compound 0.8 µM) it was 0.546; in test [3] (first compound 2.53 µM), 0.546. The relative viability in test [3] (first compound 8 µM) was 0.414.

Turning to NCI-H2170, the relative viability was determined as 0.914 in test [1] (first compound 0.02 µM); 1.05 in test [1] (first compound 0.06325 µM); 0.798 in test [1] (first compound 0.2 µM); 0.837 in test [1] (first compound 0.6325 µM); 0.488 in test [1] (first compound 2 µM); 0.93 in test [2] (first compound 0.02 µM). The relative viability amounted to 0.997 in test [2] (first compound 0.06325 µM); 0.643 in test [2] (first compound 0.2 µM); 0.729 in test [2] (first compound 0.6325 µM); 0.518 in test [2] (first compound 2 µM); 0.858 in test [3] (first compound 0.08 µM); 0.835 in test [3] (first compound 0.8 µM). In addition, the relative viability was 0.697 in test [3] (first compound 2.53 µM) and 0.635 in test [3] (first compound 8 µM).

Take NCI-H2228: the relative viability in test [2] (first compound 0.02 µM) was 0.469; in test [2] (first compound 0.06325 µM) it was 0.743; in test [2] (first compound 0.2 µM), 0.464; in test [2] (first compound 0.6325 µM), 0.529; in test [2] (first compound 2 µM), 0.39; in test [4] (first compound 0.08 µM), 1.05. The relative viability in test [4] (first compound 0.8 µM) amounted to 0.917; in test [4] (first compound 2.53 µM), 0.992; in test [4] (first compound 8 µM), 0.531; in test [3] (first compound 0.08 µM), 0.776; in test [3] (first compound 0.8 µM), 0.636; in test [3] (first compound 2.53 µM), 0.727. In test [3] (first compound 8 µM), the relative viability was 0.239.

On to NCI-H2342, for which the relative viability is 0.498 in test [1] (first compound 0.02 µM); 0.525 in test [1] (first compound 0.06325 µM); 0.476 in test [1] (first compound 0.2 µM); 0.565 in test [1] (first compound 0.6325 µM); 0.463 in test [1] (first compound 2 µM); 0.821 in test [2] (first compound 0.02 µM). Further, the relative viability in test [2] (first compound 0.06325 µM) came out at 0.876; in test [2] (first compound 0.2 µM), 0.849; in test [2] (first compound 0.6325 µM) it was 0.756; in test [2] (first compound 2 µM), 0.627.

For SK-LU-1, the relative viability in test [2] (first compound 0.02 µM) is 0.741; in test [2] (first compound 0.06325 µM) it was 0.742; in test [2] (first compound 0.2 µM), 0.736; in test [2] (first compound 0.6325 µM) it was 0.647; in test [2] (first compound 2 µM) it was 0.482; in test [4] (first compound 0.08 µM) it was 1.28. Moreover, the relative viability in test [4] (first compound 0.8 µM) was 1.31; in test [4] (first compound 2.53 µM), 1.52; in test [4] (first compound 8 µM), 0.807; in test [3] (first compound 0.08 µM), 1.02; in test [3] (first compound 0.8 µM), 1.01; in test [3] (first compound 2.53 µM), 0.816. Besides, the relative viability in test [3] (first compound 8 µM) stood at 0.406.

On to SK-MES-1, for which the relative viability came out at 1.12 in test [2] (first compound 0.02 µM); 1.22 in test [2] (first compound 0.06325 µM); 1.09 in test [2] (first compound 0.2 µM); 1.03 in test [2] (first compound 0.6325 µM); 0.72 in test [2] (first compound 2 µM); 0.896 in test [3] (first compound 0.08 µM). Further, the relative viability in test [3] (first compound 0.8 µM) is 0.897; in test [3] (first compound 2.53 µM), 1.01; in test [3] (first compound 8 µM), 0.647.

Take SW 900: the relative viability in test [1] (first compound 0.02 µM) came to 0.63; in test [1] (first compound 0.06325 µM), 0.606; in test [1] (first compound 0.2 µM), 0.505; in test [1] (first compound 0.6325 µM) it was 0.522; in test [1] (first compound 2 µM), 0.429; in test [2] (first compound 0.02 µM) it was 0.455. Moreover, the relative viability in test [2] (first compound 0.06325 µM) turned out to be 0.573; in test [2] (first compound 0.2 µM), 0.488; in test [2] (first compound 0.6325 µM), 0.425; in test [2] (first compound 2 µM), 0.392.

With SW 1573, the relative viability was determined as 0.737 in test [2] (first compound 0.02 µM); 0.953 in test [2] (first compound 0.06325 µM); 0.705 in test [2] (first compound 0.2 µM); 0.552 in test [2] (first compound 0.6325 µM); 0.451 in test [2] (first compound 2 µM); 1.03 in test [4] (first compound 0.08 µM). The relative viability is 0.872 in test [4] (first compound 0.8 µM); 1.07 in test [4] (first compound 2.53 µM); 0.935 in test [4] (first compound 8 µM); 0.666 in test [3] (first compound 0.08 µM); 0.763 in test [3] (first compound 0.8 µM); 0.906 in test [3] (first compound 2.53 µM). Also, in test [3] (first compound 8 µM), the relative viability is 0.581.

(Values after the supplement of paper PMC10307832.)
